# Assay results: ChEMBL document CHEMBL3885861, “Open TG-GATES”
# Species: Rattus norvegicus
# Assay: Open TG-GATES - Regimen: Daily Repeat
# Type: toxicity, organism-based, Sprague-Dawley
# Set-up: regimen Daily Repeat, gender Male, age 6 weeks
# Conditions: in vivo, po, 0 mg/kg, route gavage, dose level Control; for APTT / Bas / Eos / Fbg / Hb / Ht / Lym / MCH / MCHC / MCV / Mono / Neu / PT / Plat / RBC / Ret / WBC: tissue Blood; for KIDNEY_L / KIDNEY_R / KIDNEY_TOTAL: tissue Kidney; for LIVER: tissue Liver; for A/G / ALP / ALT / AST / BUN / CRE / Ca / Cl / DBIL / GLC / IP / K / LDH / Na / PL / RALB / TBIL / TC / TG / TP / gamma-GTP: tissue Plasma
smiles,measurement,setting,value
Cc1cccc(Nc2ccccc2C(=O)O)c1C [MEFENAMIC ACID],TERMINAL_BW,"72 h, time 3 day",233.8 g
same,APTT,"72 h, time 3 day",19.9 s
same,Bas,"72 h, time 3 day",0%
same,Eos,"72 h, time 3 day",0.8%
same,Fbg,"72 h, time 3 day",223.4 mg/dL
same,Hb,"72 h, time 3 day",13.4 g/dL
same,Ht,"72 h, time 3 day",38.3%
same,Lym,"72 h, time 3 day",76%
same,MCH,"72 h, time 3 day",21.9 pg
same,MCHC,"72 h, time 3 day",35.1%
same,MCV,"72 h, time 3 day",62.4 fL
same,Mono,"72 h, time 3 day",2.6%
same,Neu,"72 h, time 3 day",18.2%
same,PT,"72 h, time 3 day",11.9 s
same,Plat,"72 h, time 3 day",118.8 x10_4/uL
same,RBC,"72 h, time 3 day",614 x10_4/ul
same,Ret,"72 h, time 3 day",5.7%
same,WBC,"72 h, time 3 day",105.7 x10_2/uL
same,KIDNEY_L,"72 h, time 3 day",1 g
same,KIDNEY_R,"72 h, time 3 day",1 g
same,KIDNEY_TOTAL,"72 h, time 3 day",2 g
same,LIVER,"72 h, time 3 day",11.2 g
same,A/G,"72 h, time 3 day",1.6
same,ALP,"72 h, time 3 day",1029.8 IU/L
same,ALT,"72 h, time 3 day",35.4 IU/L
same,AST,"72 h, time 3 day",64.2 IU/L
same,BUN,"72 h, time 3 day",14.4 mg/dL
same,CRE,"72 h, time 3 day",0.4 mg/dL
same,Ca,"72 h, time 3 day",11 mg/dL
same,Cl,"72 h, time 3 day",103.2 meq/L
same,DBIL,"72 h, time 3 day",0.088 mg/dL
same,GLC,"72 h, time 3 day",193.2 mg/dL
same,IP,"72 h, time 3 day",7.6 mg/dL
same,K,"72 h, time 3 day",4.2 meq/L
same,LDH,"72 h, time 3 day",173 IU/L
same,Na,"72 h, time 3 day",141 meq/L
same,PL,"72 h, time 3 day",143.6 mg/dL
same,RALB,"72 h, time 3 day",3.5 g/dL
same,TBIL,"72 h, time 3 day",0.1 mg/dL
same,TC,"72 h, time 3 day",70.6 mg/dL
same,TG,"72 h, time 3 day",87.4 mg/dL
same,TP,"72 h, time 3 day",5.6 g/dL
same,gamma-GTP,"72 h, time 3 day",1 IU/L
same,TERMINAL_BW,"[…], time 7 day",261.7 g
same,TERMINAL_BW,"[…], time 14 day",316.1 g
same,TERMINAL_BW,"[…], time 28 day",409.8 g
same,APTT,"[…], time 7 day",18.5 s
same,Bas,"[…], time 7 day",0%
same,Eos,"[…], time 7 day",0.8%
same,Fbg,"[…], time 7 day",219.2 mg/dL
same,Hb,"[…], time 7 day",13.8 g/dL
same,Ht,"[…], time 7 day",39.1%
same,Lym,"[…], time 7 day",81.4%
same,MCH,"[…], time 7 day",21.3 pg
same,MCHC,"[…], time 7 day",35.5%
same,MCV,"[…], time 7 day",60.1 fL
same,Mono,"[…], time 7 day",2.8%
same,Neu,"[…], time 7 day",13.4%
same,PT,"[…], time 7 day",11.7 s
same,Plat,"[…], time 7 day",121.6 x10_4/uL
same,RBC,"[…], time 7 day",650.6 x10_4/ul
same,Ret,"[…], time 7 day",4.7%
same,WBC,"[…], time 7 day",105 x10_2/uL
same,APTT,"[…], time 14 day",20.6 s
same,Bas,"[…], time 14 day",0%
same,Eos,"[…], time 14 day",1%
same,Fbg,"[…], time 14 day",228.8 mg/dL
same,Hb,"[…], time 14 day",14.3 g/dL
same,Ht,"[…], time 14 day",40.5%
same,Lym,"[…], time 14 day",76.4%
same,MCH,"[…], time 14 day",21.4 pg
same,MCHC,"[…], time 14 day",35.2%
same,MCV,"[…], time 14 day",60.8 fL
same,Mono,"[…], time 14 day",2.2%
same,Neu,"[…], time 14 day",18.6%
same,PT,"[…], time 14 day",12.1 s
same,Plat,"[…], time 14 day",108.8 x10_4/uL
same,RBC,"[…], time 14 day",667.4 x10_4/ul
same,Ret,"[…], time 14 day",4.2%
same,WBC,"[…], time 14 day",111.1 x10_2/uL
same,APTT,"[…], time 28 day",19.1 s
same,Bas,"[…], time 28 day",0%
same,Eos,"[…], time 28 day",1%
same,Fbg,"[…], time 28 day",249 mg/dL
same,Hb,"[…], time 28 day",15.3 g/dL
same,Ht,"[…], time 28 day",43.8%
same,Lym,"[…], time 28 day",81.4%
same,MCH,"[…], time 28 day",20.1 pg
same,MCHC,"[…], time 28 day",35%
same,MCV,"[…], time 28 day",57.4 fL
same,Mono,"[…], time 28 day",2%
same,Neu,"[…], time 28 day",14.4%
same,PT,"[…], time 28 day",11.8 s
same,Plat,"[…], time 28 day",111.8 x10_4/uL
same,RBC,"[…], time 28 day",763.4 x10_4/ul
same,Ret,"[…], time 28 day",2.7%
same,WBC,"[…], time 28 day",91.7 x10_2/uL
same,KIDNEY_L,"[…], time 7 day",1.1 g
same,KIDNEY_R,"[…], time 7 day",1.1 g
same,KIDNEY_TOTAL,"[…], time 7 day",2.2 g
same,KIDNEY_L,"[…], time 14 day",1.2 g
same,KIDNEY_R,"[…], time 14 day",1.2 g
same,KIDNEY_TOTAL,"[…], time 14 day",2.4 g
same,KIDNEY_L,"[…], time 28 day",1.4 g
same,KIDNEY_R,"[…], time 28 day",1.4 g
same,KIDNEY_TOTAL,"[…], time 28 day",2.9 g
same,LIVER,"[…], time 7 day",11.4 g
same,LIVER,"[…], time 14 day",13.7 g
same,LIVER,"[…], time 28 day",17.3 g
same,A/G,"[…], time 7 day",1.5
same,ALP,"[…], time 7 day",908 IU/L
same,ALT,"[…], time 7 day",38.8 IU/L
same,AST,"[…], time 7 day",69.4 IU/L
same,BUN,"[…], time 7 day",14.8 mg/dL
same,CRE,"[…], time 7 day",0.4 mg/dL
same,Ca,"[…], time 7 day",10.6 mg/dL
same,Cl,"[…], time 7 day",103.4 meq/L
same,DBIL,"[…], time 7 day",0.07 mg/dL
same,GLC,"[…], time 7 day",229.4 mg/dL
same,IP,"[…], time 7 day",6.9 mg/dL
same,K,"[…], time 7 day",3.8 meq/L
same,LDH,"[…], time 7 day",181 IU/L
same,Na,"[…], time 7 day",140.4 meq/L
same,PL,"[…], time 7 day",135.4 mg/dL
same,RALB,"[…], time 7 day",3.3 g/dL
same,TBIL,"[…], time 7 day",0.1 mg/dL
same,TC,"[…], time 7 day",71 mg/dL
same,TG,"[…], time 7 day",68.2 mg/dL
same,TP,"[…], time 7 day",5.6 g/dL
same,gamma-GTP,"[…], time 7 day",1 IU/L
same,A/G,"[…], time 14 day",1.5
same,ALP,"[…], time 14 day",880 IU/L
same,ALT,"[…], time 14 day",31 IU/L
same,AST,"[…], time 14 day",58.8 IU/L
same,BUN,"[…], time 14 day",16 mg/dL
same,CRE,"[…], time 14 day",0.5 mg/dL
same,Ca,"[…], time 14 day",10.5 mg/dL
same,Cl,"[…], time 14 day",103 meq/L
same,DBIL,"[…], time 14 day",0.092 mg/dL
same,GLC,"[…], time 14 day",233.6 mg/dL
same,IP,"[…], time 14 day",7.1 mg/dL
same,K,"[…], time 14 day",3.9 meq/L
same,LDH,"[…], time 14 day",154.4 IU/L
same,Na,"[…], time 14 day",140.6 meq/L
same,PL,"[…], time 14 day",142.8 mg/dL
same,RALB,"[…], time 14 day",3.4 g/dL
same,TBIL,"[…], time 14 day",0.2 mg/dL
same,TC,"[…], time 14 day",73.4 mg/dL
same,TG,"[…], time 14 day",101.4 mg/dL
same,TP,"[…], time 14 day",5.6 g/dL
same,gamma-GTP,"[…], time 14 day",0.8 IU/L
same,A/G,"[…], time 28 day",1.3
same,ALP,"[…], time 28 day",665 IU/L
same,ALT,"[…], time 28 day",33.4 IU/L
same,AST,"[…], time 28 day",56.6 IU/L
same,BUN,"[…], time 28 day",18.8 mg/dL
same,CRE,"[…], time 28 day",0.5 mg/dL
same,Ca,"[…], time 28 day",10.6 mg/dL
same,Cl,"[…], time 28 day",103.4 meq/L
same,DBIL,"[…], time 28 day",0.1 mg/dL
same,GLC,"[…], time 28 day",242.8 mg/dL
same,IP,"[…], time 28 day",7 mg/dL
same,K,"[…], time 28 day",3.8 meq/L
same,LDH,"[…], time 28 day",111.2 IU/L
same,Na,"[…], time 28 day",140.6 meq/L
same,PL,"[…], time 28 day",151.8 mg/dL
same,RALB,"[…], time 28 day",3.6 g/dL
same,TBIL,"[…], time 28 day",0.2 mg/dL
same,TC,"[…], time 28 day",74.2 mg/dL
same,TG,"[…], time 28 day",141.4 mg/dL
same,TP,"[…], time 28 day",6.2 g/dL
same,gamma-GTP,"[…], time 28 day",1.6 IU/L
